# “Also recorded” adds a separate entry of the source. Where two headings read alike, the source gives them in different places.
# Legend:
# 2D rat cortical cultures [1] = conditions: cytotoxicity AlamarBlue, cited from earlier work; for hitc CCTE_Shafer_MEA_dev_AB: rNFA mc5 hit call
# [2] = test system: human iPSC-derived 3D BrainSpheres; test: BrainSphere MEA assay (HD-MEA, 13-day exposure, concentration-response); format: cell-based; conditions: for EC (benchmark response 1.349 SD): 312 h; on hitc Mean.Spheroid.Burst.Duration: key: 1 (active); 0 (inactive); on hitc Mean.Spheroid.Burst.ISI: key: 1 (active); 0 (inactive); on hitc Mean.Spheroid.Burst.Peak.Firing.Rate: key: 1 (active); 0 (inactive); on hitc Mean.Spheroid.Firing.Rate: key: 1 (active); 0 (inactive); on hitc Mean.Spheroid.IBI: key: 1 (active); 0 (inactive); on hitc Mean.Spheroid.Nonburst.ISI: key: 1 (active); 0 (inactive); on hitc Mean.Spheroid.Spikes.per.Burst.per.Electrode: key: 1 (active); 0 (inactive); on hitc Mean.Spheroid.Spikes.per.Burst: key: 1 (active); 0 (inactive); on hitc Spheroid.Burst.Frequency: key: 1 (active); 0 (inactive); on hitc Spheroid.Spike.Amplitude.90th.Percentile: key: 1 (active); 0 (inactive)
# How it was run: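 Recordings used a 5× RMS spike threshold and 600 s network scans of fixed electrode regions, each region clustered as one BrainSphere. Spheres had 7 weeks of differentiation and 48 h attachment on coated HD-MEA chips before day 0 of the 13-day concentration-response exposure. At least three independent plates were run.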
# 2D rat cortical cultures [3] = conditions: cytotoxicity LDH, cited from earlier work; for hitc CCTE_Shafer_MEA_dev_LDH: rNFA mc5 hit call; for AC50: read-out: ac50 CCTE_Shafer_MEA_dev_LDH, rNFA mc5
# [4] = AUC over 13-day exposure, tcplfit2
# [5] = Homo sapiens, read-out: BMD Mean.Spheroid.Burst.ISI
# [6] = Homo sapiens, read-out: BMD Mean.Spheroid.Nonburst.ISI
# [7] = tcplfit2 BMD at benchmark response (1.349*SD of baseline controls)
# [8] = tcplfit2 output ACC, activity cutoff in Supplemental Table 1
# [9] = Homo sapiens, read-out: ac50 Mean.Spheroid.Burst.Duration
# [10] = Homo sapiens, read-out: ac50 Mean.Spheroid.Burst.ISI
# [11] = Homo sapiens, read-out: ac50 Mean.Spheroid.Burst.Peak.Firing.Rate
# [12] = Homo sapiens, read-out: ac50 Mean.Spheroid.IBI
# [13] = Homo sapiens, read-out: ac50 Mean.Spheroid.Spikes.per.Burst
# [14] = Homo sapiens, read-out: ac50 Mean.Spheroid.Spikes.per.Burst.per.Electrode
# [15] = Homo sapiens, read-out: ac50 Spheroid.Spike.Amplitude.90th.Percentile
structure (smiles),measurement,setting,value
C/C(=C/C=C/[C@@H](C)C(=O)O)[C@H]1CN[C@H](C(=O)O)[C@H]1CC(=O)O [Domoic acid],hitc CCTE_Shafer_MEA_dev_AB,2D rat cortical cultures [1],0
same,Difference of minimum potency between BrainSphere MEA assay and rNFA,"[2]; 5th percentile of AC50 values by chemical, above 0.5 = more potent in the rNFA",more than 0.5 log10 µM
same,hitc Mean.Spheroid.Burst.Duration,[2]; [4],1
same,hitc Mean.Spheroid.Burst.ISI,[2]; [4],1
same,hitc Mean.Spheroid.Burst.Peak.Firing.Rate,[2]; [4],1
same,hitc Mean.Spheroid.Firing.Rate,[2]; [4],1
same,hitc Mean.Spheroid.IBI,[2]; [4],1
same,hitc Mean.Spheroid.Nonburst.ISI,[2]; [4],1
same,hitc Mean.Spheroid.Spikes.per.Burst,[2]; [4],1
same,hitc Mean.Spheroid.Spikes.per.Burst.per.Electrode,[2]; [4],1
same,hitc Spheroid.Burst.Frequency,[2]; [4],1
same,hitc Spheroid.Spike.Amplitude.90th.Percentile,[2]; [4],0
same,EC (benchmark response 1.349 SD),[2]; [5],2.6 µM
same,EC (benchmark response 1.349 SD),[2]; [6],0.99 µM
same,EC50,"[2]; Homo sapiens, read-out: Mean potency",3320 nM
same,EC50,"[2]; Homo sapiens, read-out: Minimum potency",1300 nM
same,AC50,"[2]; Homo sapiens, read-out: ac50 Mean.Spheroid.Burst.Duration, concentration at 50% maximal activity, Supplement 3 prints it also for curves with hit call 0",3600 nM
same,AC50,"[2]; Homo sapiens, read-out: ac50 Mean.Spheroid.Burst.ISI, concentration at 50% maximal activity, Supplement 3 prints it also for curves with hit call 0",4400 nM
same,AC50,"[2]; Homo sapiens, read-out: ac50 Mean.Spheroid.Burst.Peak.Firing.Rate, concentration at 50% maximal activity, Supplement 3 prints it also for curves with hit call 0",3100 nM
same,AC50,"[2]; Homo sapiens, read-out: ac50 Mean.Spheroid.Firing.Rate, concentration at 50% maximal activity, Supplement 3 prints it also for curves with hit call 0",5400 nM
same,AC50,"[2]; Homo sapiens, read-out: ac50 Mean.Spheroid.IBI, concentration at 50% maximal activity, Supplement 3 prints it also for curves with hit call 0",3550 nM
same,AC50,"[2]; Homo sapiens, read-out: ac50 Mean.Spheroid.Nonburst.ISI, concentration at 50% maximal activity, Supplement 3 prints it also for curves with hit call 0",1000 nM
same,AC50,"[2]; Homo sapiens, read-out: ac50 Mean.Spheroid.Spikes.per.Burst, concentration at 50% maximal activity, Supplement 3 prints it also for curves with hit call 0",3000 nM
same,AC50,"[2]; Homo sapiens, read-out: ac50 Mean.Spheroid.Spikes.per.Burst.per.Electrode, concentration at 50% maximal activity, Supplement 3 prints it also for curves with hit call 0",1700 nM
same,AC50,"[2]; Homo sapiens, read-out: ac50 Spheroid.Burst.Frequency, concentration at 50% maximal activity, Supplement 3 prints it also for curves with hit call 0",4200 nM
same,AC50,"[2]; Homo sapiens, read-out: ac50 Spheroid.Spike.Amplitude.90th.Percentile, concentration at 50% maximal activity, Supplement 3 prints it also for curves with hit call 0",15000 nM
same,Percent active,[2]; metrics active out of the total number of metrics screened,90%
same,AC50,"[2]; read-out: ac50 Mean.Spheroid.Burst.Duration, concentration at 50% maximal activity, Supplement 3 prints it also for curves with hit call 0, listed as L-Domoic acid",3580 nM
same,AC50,"[2]; read-out: ac50 Mean.Spheroid.Burst.ISI, concentration at 50% maximal activity, Supplement 3 prints it also for curves with hit call 0, listed as L-Domoic acid",4360 nM
same,AC50,"[2]; read-out: ac50 Mean.Spheroid.Burst.Peak.Firing.Rate, concentration at 50% maximal activity, Supplement 3 prints it also for curves with hit call 0, listed as L-Domoic acid",3100 nM
same,AC50,"[2]; read-out: ac50 Mean.Spheroid.Firing.Rate, concentration at 50% maximal activity, Supplement 3 prints it also for curves with hit call 0, listed as L-Domoic acid",5410 nM
same,AC50,"[2]; read-out: ac50 Mean.Spheroid.Nonburst.ISI, concentration at 50% maximal activity, Supplement 3 prints it also for curves with hit call 0, listed as L-Domoic acid",1020 nM
same,AC50,"[2]; read-out: ac50 Mean.Spheroid.Spikes.per.Burst.per.Electrode, concentration at 50% maximal activity, Supplement 3 prints it also for curves with hit call 0, listed as L-Domoic acid",1710 nM
same,AC50,"[2]; read-out: ac50 Mean.Spheroid.Spikes.per.Burst, concentration at 50% maximal activity, Supplement 3 prints it also for curves with hit call 0, listed as L-Domoic acid",2980 nM
same,AC50,"[2]; read-out: ac50 Spheroid.Burst.Frequency, concentration at 50% maximal activity, Supplement 3 prints it also for curves with hit call 0, listed as L-Domoic acid",4170 nM
same,BMD Mean.Spheroid.Burst.Duration,[2]; [7],2 µM
same,BMD Mean.Spheroid.Burst.Peak.Firing.Rate,[2]; [7],2 µM
same,BMD Mean.Spheroid.Firing.Rate,[2]; [7],6.6 µM
same,BMD Mean.Spheroid.IBI,[2]; [7],1.9 µM
same,BMD Mean.Spheroid.Spikes.per.Burst,[2]; [7],1.3 µM
same,BMD Mean.Spheroid.Spikes.per.Burst.per.Electrode,[2]; [7],1.3 µM
same,BMD Spheroid.Burst.Frequency,[2]; [7],4.4 µM
same,BMD Spheroid.Spike.Amplitude.90th.Percentile,[2]; [7],14 µM
same,ACC Mean.Spheroid.Burst.Duration,[2]; [8],1.8 µM
same,ACC Mean.Spheroid.Burst.ISI,[2]; [8],1.8 µM
same,ACC Mean.Spheroid.Burst.Peak.Firing.Rate,[2]; [8],1.8 µM
same,ACC Mean.Spheroid.Firing.Rate,[2]; [8],9.9 µM
same,ACC Mean.Spheroid.IBI,[2]; [8],3.1 µM
same,ACC Mean.Spheroid.Nonburst.ISI,[2]; [8],1 µM
same,ACC Mean.Spheroid.Spikes.per.Burst,[2]; [8],2.8 µM
same,ACC Mean.Spheroid.Spikes.per.Burst.per.Electrode,[2]; [8],1.5 µM
same,ACC Spheroid.Burst.Frequency,[2]; [8],3.8 µM
same,ACC Spheroid.Spike.Amplitude.90th.Percentile,[2]; [8],18 µM
same,hitc CCTE_Shafer_MEA_dev_LDH,2D rat cortical cultures [3],1
same,AC50,2D rat cortical cultures [3],6750 nM
CCCC(CCC)C(=O)O [Sodium valproate],hitc CCTE_Shafer_MEA_dev_AB,2D rat cortical cultures [1],0
same,Bioactivity across the 10 MEA endpoints of the BrainSphere MEA assay (in words),[2],inactive across all metrics; also recorded: inactive in the BrainSphere MEA
same,EC (benchmark response 1.349 SD),"[2]; Homo sapiens, tcplfit2 BMD at benchmark response (1.349*SD of baseline controls), read-out: BMD Mean.Spheroid.Burst.ISI",85 µM
same,EC (benchmark response 1.349 SD),"[2]; Homo sapiens, tcplfit2 BMD at benchmark response (1.349*SD of baseline controls), read-out: BMD Mean.Spheroid.Nonburst.ISI",213 µM
same,AC50,"[2]; Homo sapiens, concentration at 50% maximal activity, Supplement 3 prints it also for curves with hit call 0, read-out: ac50 Mean.Spheroid.Burst.Duration",45000 nM
same,AC50,"[2]; Homo sapiens, concentration at 50% maximal activity, Supplement 3 prints it also for curves with hit call 0, read-out: ac50 Mean.Spheroid.Burst.ISI",85000 nM
same,AC50,"[2]; Homo sapiens, concentration at 50% maximal activity, Supplement 3 prints it also for curves with hit call 0, read-out: ac50 Spheroid.Burst.Frequency",84000 nM
same,hitc CCTE_Shafer_MEA_dev_LDH,2D rat cortical cultures [3],0
CC1(C)S[C@@H]2[C@H](NC(=O)[C@H](N)c3ccc(O)cc3)C(=O)N2[C@H]1C(=O)O [Amoxicillin],hitc CCTE_Shafer_MEA_dev_AB,2D rat cortical cultures [1],0
same,BMD Spheroid.Burst.Frequency,[2],448 µM
same,Bioactivity across the 10 MEA endpoints of the BrainSphere MEA assay (in words),[2],inactive across all metrics; also recorded: inactivity across all metrics in both models
same,Hits,[2],0
same,Percent active,[2],0%
same,hitc Mean.Spheroid.Burst.Duration,[2],0
same,hitc Mean.Spheroid.Burst.ISI,[2],0
same,hitc Mean.Spheroid.Burst.Peak.Firing.Rate,[2],0
same,hitc Mean.Spheroid.Firing.Rate,[2],0
same,hitc Mean.Spheroid.IBI,[2],0
same,hitc Mean.Spheroid.Nonburst.ISI,[2],0
same,hitc Mean.Spheroid.Spikes.per.Burst,[2],0
same,hitc Mean.Spheroid.Spikes.per.Burst.per.Electrode,[2],0
same,hitc Spheroid.Burst.Frequency,[2],0
same,hitc Spheroid.Spike.Amplitude.90th.Percentile,[2],0
same,EC (benchmark response 1.349 SD),[2]; [5],1440 µM
same,EC (benchmark response 1.349 SD),[2]; [6],620 µM
same,AC50,[2]; [9],220 nM
same,AC50,[2]; [10],45000 nM
same,AC50,[2]; [11],29 nM
same,AC50,[2]; [12],63 nM
same,AC50,[2]; [13],10 nM
same,AC50,[2]; [14],36 nM
same,AC50,[2]; [15],130 nM
same,hitc CCTE_Shafer_MEA_dev_LDH,2D rat cortical cultures [3],0
CN(C)C(=O)C(CCN1CCC(O)(c2ccc(Cl)cc2)CC1)(c1ccccc1)c1ccccc1 [Loperamide],AC50,"2D rat cortical cultures [1]; read-out: ac50 CCTE_Shafer_MEA_dev_AB, rNFA mc5",5020 nM
same,ACC Mean.Spheroid.Burst.Duration,[2],0.076 µM
same,ACC Mean.Spheroid.Burst.ISI,[2],0.019 µM
same,ACC Mean.Spheroid.Burst.Peak.Firing.Rate,[2],0.065 µM
same,ACC Mean.Spheroid.Firing.Rate,[2],0.036 µM
same,ACC Mean.Spheroid.IBI,[2],0.9 µM
same,ACC Mean.Spheroid.Nonburst.ISI,[2],0.97 µM
same,ACC Mean.Spheroid.Spikes.per.Burst,[2],0.08 µM
same,ACC Mean.Spheroid.Spikes.per.Burst.per.Electrode,[2],0.082 µM
same,ACC Spheroid.Burst.Frequency,[2],0.026 µM
same,ACC Spheroid.Spike.Amplitude.90th.Percentile,[2],6.6 µM
same,BMD Mean.Spheroid.Burst.Duration,[2],0.087 µM
same,BMD Mean.Spheroid.Burst.Peak.Firing.Rate,[2],0.071 µM
same,BMD Mean.Spheroid.Firing.Rate,[2],0.025 µM
same,BMD Mean.Spheroid.IBI,[2],0.83 µM
same,BMD Mean.Spheroid.Spikes.per.Burst,[2],0.054 µM
same,BMD Mean.Spheroid.Spikes.per.Burst.per.Electrode,[2],0.07 µM
same,BMD Spheroid.Burst.Frequency,[2],0.031 µM
same,BMD Spheroid.Spike.Amplitude.90th.Percentile,[2],2.6 µM
same,"Bioactivity trend over time for MFR, mean spike amplitude and burst frequency (qualitative)",[2],appeared to decrease activity
same,Difference of minimum potency between BrainSphere MEA assay and rNFA,[2],≤ 0.5 log10 µM
same,Percent active,[2],100%
same,hitc Mean.Spheroid.Burst.Duration,[2],1
same,hitc Mean.Spheroid.Burst.ISI,[2],1
same,hitc Mean.Spheroid.Burst.Peak.Firing.Rate,[2],1
same,hitc Mean.Spheroid.Firing.Rate,[2],1
same,hitc Mean.Spheroid.IBI,[2],1
same,hitc Mean.Spheroid.Nonburst.ISI,[2],1
same,hitc Mean.Spheroid.Spikes.per.Burst,[2],1
same,hitc Mean.Spheroid.Spikes.per.Burst.per.Electrode,[2],1
same,hitc Spheroid.Burst.Frequency,[2],1
same,hitc Spheroid.Spike.Amplitude.90th.Percentile,[2],1
same,EC (benchmark response 1.349 SD),[2]; [5],0.04 µM
same,EC (benchmark response 1.349 SD),[2]; [6],0.95 µM
same,AC50,[2]; [9],140 nM
same,AC50,[2]; [10],100 nM
same,AC50,[2]; [11],120 nM
same,AC50,"[2]; Homo sapiens, read-out: ac50 Mean.Spheroid.Firing.Rate",23 nM
same,AC50,[2]; [12],910 nM
same,AC50,"[2]; Homo sapiens, read-out: ac50 Mean.Spheroid.Nonburst.ISI",990 nM
same,AC50,[2]; [13],73 nM
same,AC50,[2]; [14],94 nM
same,AC50,[2]; [15],8900 nM
same,AC50,[2]; read-out: ac50 Mean.Spheroid.Burst.Duration,145 nM
same,AC50,[2]; read-out: ac50 Mean.Spheroid.Burst.ISI,103 nM
same,AC50,[2]; read-out: ac50 Mean.Spheroid.Burst.Peak.Firing.Rate,115 nM
same,AC50,[2]; read-out: ac50 Mean.Spheroid.Nonburst.ISI,989 nM
same,AC50,[2]; read-out: ac50 Spheroid.Spike.Amplitude.90th.Percentile,8930 nM
same,AC50,2D rat cortical cultures [3],2940 nM

# From PMC12198282, “Application of a high-density microelectrode array assay using a 3D human iPSC-derived brain microphysiological system model for in vitro neurotoxicity screening of environmental compounds” (Archives of Toxicology, 2025)
